*1 amine or outer side, *2 acyl side, *3 side chain or, on linkers, in order; H or OH if unused. Where a SMILES comes first, the peptide text is derived from it. [ ]: non-standard residue; d: D form. The star is where a group is joined. X1 = O=c1[nH]c(=O)n([C@H]2C[C@H](O)[C@@H](CO*)O2)cc1F; Morpholide = C1CN(*)CCO1; Aib = CC(C)(N)C(=O)O; CO = O=C([*:1])[*:2]
Experiments:
LNCaP = experiment: Cytotoxic concentration in prostate specific antigen (PSA) producing human LNCaP cells; format: functional, cell-based
TSU = experiment: Cytotoxic concentration in non prostate specific antigen (PSA) producing human TSU cells; format: functional, cell-based

Compound | IC50 (LNCaP) | IC50 (TSU)
CC(C)C[C@H](NC(=O)[C@H](CCCCN)NC(=O)[C@H](CO)NC(=O)[C@H](CO)NC(=O)[C@H](Cc1c[nH]cn1)NC(=O)N1CCOCC1)C(=O)N[C@@H](CCC(N)=O)C(=O)N[C@@H](CC(C)C)C(=O)NC(C)(C)C(=O)OC[C@H]1O[C@@H](n2cc(F)c(=O)[nH]c2=O)C[C@@H]1O ({Morpholide-CO}-HSSKLQL[Aib]-X1) | 117 nM | 7200 nM
O=c1[nH]c(=O)n([C@H]2C[C@H](O)[C@@H](CO)O2)cc1F [FLOXURIDINE] | 69.2 nM | 58 nM
